Data taken from the NIST ThermoML archive (doi:10.1016/j.jct.2013.10.025).
± gives the expanded uncertainty stated by the source.

Assay: xn = mol fraction of the nth substance listed
Details: 101 kPa, Liquid; for viscosity: Capillary tube (Ostwald / Ubbelohde) method; for speed of sound: Sing-around technique in a fixed-path interferometer; for mass density: Vibrating tube method

CCCCCCO [hexan-1-ol] + C1CCOC1
Details | mass density [kg/m3] | speed of sound [m/s] | viscosity [mPa·s]
298.15 K, x2 = 0.0538 | 817.624 ± 0.24 | 1301.1 ± 1.5 | 3.778 ± 0.36
298.15 K, x2 = 0.1144 | 820.377 ± 0.24 | 1298.8 ± 1.5 | 3.16 ± 0.36
298.15 K, x2 = 0.1511 | 822.105 ± 0.24 | 1297 ± 1.5 | 2.887 ± 0.36
298.15 K, x2 = 0.2009 | 824.537 ± 0.24 | 1295 ± 1.5 | 2.477 ± 0.36
298.15 K, x2 = 0.256 | 827.327 ± 0.24 | 1292.7 ± 1.5 | 2.133 ± 0.36
298.15 K, x2 = 0.3156 | 830.492 ± 0.24 | 1291 ± 1.5 | 1.855 ± 0.36
298.15 K, x2 = 0.4199 | 836.41 ± 0.24 | 1287.7 ± 1.5 | 1.453 ± 0.36
298.15 K, x2 = 0.5013 | 841.407 ± 0.24 | 1285.1 ± 1.5 | 1.199 ± 0.36
298.15 K, x2 = 0.6029 | 848.183 ± 0.24 | 1282.2 ± 1.5 | 0.986 ± 0.36
298.15 K, x2 = 0.7071 | 855.823 ± 0.24 | 1279.3 ± 1.5 | 0.786 ± 0.36
298.15 K, x2 = 0.8042 | 863.667 ± 0.24 | 1277.1 ± 1.5 | 0.661
298.15 K, x2 = 0.9057 | 872.745 ± 0.23 | 1276.4 ± 1.5 | 0.559
303.15 K, x2 = 0.0538 | 813.958 ± 0.24 | 1284.1 ± 1.5 | 3.22 ± 0.36
303.15 K, x2 = 0.1144 | 816.633 ± 0.24 | 1281.5 ± 1.5 | 2.737 ± 0.36
303.15 K, x2 = 0.1511 | 818.311 ± 0.24 | 1279.5 ± 1.5 | 2.516 ± 0.36
303.15 K, x2 = 0.2009 | 820.671 ± 0.24 | 1277.3 ± 1.5 | 2.148 ± 0.36
303.15 K, x2 = 0.256 | 823.388 ± 0.24 | 1275.1 ± 1.5 | 1.901 ± 0.36
303.15 K, x2 = 0.3156 | 826.467 ± 0.24 | 1272.8 ± 1.5 | 1.633 ± 0.36
303.15 K, x2 = 0.4199 | 832.217 ± 0.24 | 1269 ± 1.5 | 1.325 ± 0.36
303.15 K, x2 = 0.5013 | 837.071 ± 0.24 | 1265.9 ± 1.5 | 1.107 ± 0.36
303.15 K, x2 = 0.6029 | 843.655 ± 0.24 | 1262.2 ± 1.5 | 0.904 ± 0.36
303.15 K, x2 = 0.7071 | 851.067 ± 0.24 | 1258.5 ± 1.5 | 0.719
303.15 K, x2 = 0.8042 | 858.694 ± 0.24 | 1255.6 ± 1.5 | 0.619
303.15 K, x2 = 0.9057 | 867.506 ± 0.23 | 1254 ± 1.5 | 0.536
308.15 K, x2 = 0.0538 | 810.268 ± 0.24 | 1267.1 ± 1.5 | 2.728 ± 0.36
308.15 K, x2 = 0.1144 | 812.863 ± 0.24 | 1264 ± 1.5 | 2.373 ± 0.36
308.15 K, x2 = 0.1511 | 814.495 ± 0.24 | 1261.9 ± 1.5 | 2.13 ± 0.36
308.15 K, x2 = 0.2009 | 816.788 ± 0.24 | 1259.4 ± 1.5 | 1.886 ± 0.36
308.15 K, x2 = 0.256 | 819.426 ± 0.24 | 1257.1 ± 1.5 | 1.598 ± 0.36
308.15 K, x2 = 0.3156 | 822.411 ± 0.24 | 1254.3 ± 1.5 | 1.422 ± 0.36
308.15 K, x2 = 0.4199 | 827.995 ± 0.24 | 1249.8 ± 1.5 | 1.127 ± 0.36
308.15 K, x2 = 0.5013 | 832.704 ± 0.24 | 1246 ± 1.5 | 0.95 ± 0.36
308.15 K, x2 = 0.6029 | 839.095 ± 0.24 | 1241.4 ± 1.5 | 0.796 ± 0.36
308.15 K, x2 = 0.7071 | 846.295 ± 0.24 | 1236.7 ± 1.5 | 0.64
308.15 K, x2 = 0.8042 | 853.69 ± 0.24 | 1232.5 ± 1.5 | 0.566
308.15 K, x2 = 0.9057 | 862.242 ± 0.24 | 1230 ± 1.5 | 0.47
313.15 K, x2 = 0.0538 | 806.544 ± 0.24 | 1250.3 ± 1.5 | –
313.15 K, x2 = 0.1144 | 809.062 ± 0.24 | 1246.9 ± 1.5 | –
313.15 K, x2 = 0.1511 | 810.645 ± 0.24 | 1244.7 ± 1.5 | –
313.15 K, x2 = 0.2009 | 812.872 ± 0.24 | 1242.7 ± 1.5 | –
313.15 K, x2 = 0.256 | 815.429 ± 0.24 | 1239.8 ± 1.5 | –
313.15 K, x2 = 0.3156 | 818.321 ± 0.24 | 1236.7 ± 1.5 | –
313.15 K, x2 = 0.4199 | 823.739 ± 0.24 | 1231.7 ± 1.5 | –
313.15 K, x2 = 0.5013 | 828.306 ± 0.24 | 1227.5 ± 1.5 | –
313.15 K, x2 = 0.6029 | 834.502 ± 0.24 | 1222.5 ± 1.5 | –
313.15 K, x2 = 0.7071 | 841.483 ± 0.24 | 1217 ± 1.5 | –
313.15 K, x2 = 0.8042 | 848.648 ± 0.24 | 1212.4 ± 1.5 | –
313.15 K, x2 = 0.9057 | 856.935 ± 0.24 | 1209 ± 1.5 | –

C1CCOC1 [tetrahydrofuran] + CCCCCCCCO
Details | mass density [kg/m3] | speed of sound [m/s] | viscosity [mPa·s]
298.15 K, x1 = 0.0541 | 823.522 ± 0.24 | 1344.5 ± 1.5 | 6.305 ± 0.36
298.15 K, x1 = 0.1044 | 825.135 ± 0.24 | 1341.3 ± 1.5 | 5.403 ± 0.36
298.15 K, x1 = 0.1535 | 826.78 ± 0.24 | 1337.5 ± 1.5 | 4.698 ± 0.36
298.15 K, x1 = 0.205 | 828.609 ± 0.24 | 1333.5 ± 1.5 | 4.025 ± 0.36
298.15 K, x1 = 0.2574 | 830.564 ± 0.24 | 1329.8 ± 1.5 | 3.477 ± 0.36
298.15 K, x1 = 0.3054 | 832.449 ± 0.24 | 1326.5 ± 1.5 | 2.996 ± 0.36
298.15 K, x1 = 0.4003 | 836.541 ± 0.24 | 1319.6 ± 1.5 | 2.307 ± 0.36
298.15 K, x1 = 0.5004 | 841.464 ± 0.24 | 1312.2 ± 1.5 | 1.747 ± 0.36
298.15 K, x1 = 0.6111 | 847.802 ± 0.24 | 1302.9 ± 1.5 | 1.271 ± 0.36
298.15 K, x1 = 0.7032 | 853.984 ± 0.24 | 1295.5 ± 1.5 | 0.996 ± 0.36
298.15 K, x1 = 0.8116 | 862.541 ± 0.24 | 1287.9 ± 1.5 | 0.747 ± 0.36
298.15 K, x1 = 0.9048 | 871.362 ± 0.23 | 1281.7 ± 1.5 | 0.589
303.15 K, x1 = 0.0541 | 819.992 ± 0.24 | 1327.7 ± 1.5 | 5.227 ± 0.36
303.15 K, x1 = 0.1044 | 821.552 ± 0.24 | 1324.3 ± 1.5 | 4.562 ± 0.36
303.15 K, x1 = 0.1535 | 823.145 ± 0.24 | 1320.4 ± 1.5 | 3.988 ± 0.36
303.15 K, x1 = 0.205 | 824.915 ± 0.24 | 1316 ± 1.5 | 3.395 ± 0.36
303.15 K, x1 = 0.2574 | 826.809 ± 0.24 | 1312.4 ± 1.5 | 3.014 ± 0.36
303.15 K, x1 = 0.3054 | 828.634 ± 0.24 | 1308.7 ± 1.5 | 2.602 ± 0.36
303.15 K, x1 = 0.4003 | 832.585 ± 0.24 | 1301.4 ± 1.5 | 2.089 ± 0.36
303.15 K, x1 = 0.5004 | 837.343 ± 0.24 | 1293.4 ± 1.5 | 1.566 ± 0.36
303.15 K, x1 = 0.6111 | 843.471 ± 0.24 | 1283.4 ± 1.5 | 1.173 ± 0.36
303.15 K, x1 = 0.7032 | 849.444 ± 0.24 | 1275.5 ± 1.5 | 0.931 ± 0.36
303.15 K, x1 = 0.8116 | 857.718 ± 0.24 | 1266.9 ± 1.5 | 0.715
303.15 K, x1 = 0.9048 | 866.235 ± 0.23 | 1259.7 ± 1.5 | 0.566
308.15 K, x1 = 0.0541 | 816.44 ± 0.24 | 1310.7 ± 1.5 | 4.208 ± 0.36
308.15 K, x1 = 0.1044 | 817.948 ± 0.24 | 1307.3 ± 1.5 | 3.709 ± 0.36
308.15 K, x1 = 0.1535 | 819.488 ± 0.24 | 1303 ± 1.5 | 3.217 ± 0.36
308.15 K, x1 = 0.205 | 821.202 ± 0.24 | 1298.8 ± 1.5 | 2.779 ± 0.36
308.15 K, x1 = 0.2574 | 823.029 ± 0.24 | 1294.7 ± 1.5 | 2.46 ± 0.36
308.15 K, x1 = 0.3054 | 824.796 ± 0.24 | 1290.9 ± 1.5 | 2.176 ± 0.36
308.15 K, x1 = 0.4003 | 828.614 ± 0.24 | 1283.1 ± 1.5 | 1.748 ± 0.36
308.15 K, x1 = 0.5004 | 833.216 ± 0.24 | 1274.6 ± 1.5 | 1.348 ± 0.36
308.15 K, x1 = 0.6111 | 839.116 ± 0.24 | 1264.1 ± 1.5 | 1.014 ± 0.36
308.15 K, x1 = 0.7032 | 844.874 ± 0.24 | 1255.2 ± 1.5 | 0.819 ± 0.36
308.15 K, x1 = 0.8116 | 852.874 ± 0.24 | 1244.9 ± 1.5 | 0.632
308.15 K, x1 = 0.9048 | 861.083 ± 0.24 | 1237 ± 1.5 | 0.514
313.15 K, x1 = 0.0541 | 812.862 ± 0.24 | 1294.2 ± 1.5 | –
313.15 K, x1 = 0.1044 | 814.315 ± 0.24 | 1290.6 ± 1.5 | –
313.15 K, x1 = 0.1535 | 815.803 ± 0.24 | 1286.2 ± 1.5 | –
313.15 K, x1 = 0.205 | 817.465 ± 0.24 | 1282 ± 1.5 | –
313.15 K, x1 = 0.2574 | 819.222 ± 0.24 | 1277.6 ± 1.5 | –
313.15 K, x1 = 0.3054 | 820.932 ± 0.24 | 1273.8 ± 1.5 | –
313.15 K, x1 = 0.4003 | 824.625 ± 0.24 | 1265.5 ± 1.5 | –
313.15 K, x1 = 0.5004 | 829.064 ± 0.24 | 1256.5 ± 1.5 | –
313.15 K, x1 = 0.6111 | 834.743 ± 0.24 | 1245.4 ± 1.5 | –
313.15 K, x1 = 0.7032 | 840.294 ± 0.24 | 1236.1 ± 1.5 | –
313.15 K, x1 = 0.8116 | 848 ± 0.24 | 1225 ± 1.5 | –
313.15 K, x1 = 0.9048 | 855.903 ± 0.24 | 1216.3 ± 1.5 | –
